From US12129252B1, “Pyrrolo[2,3-c][2,6]naphthyridine-8-carboxylic acids as CK2 inhibitors” (KING FAISAL UNIVERSITY, priority 2024, dated 2024)

Tests used:
PC3 (prostate) = assay: In vitro cytotoxic activity assay (MTT), PC3; type: cell-based; settings: Homo sapiens; cells exposed for 96 hours; 50 % inhibition of cell proliferation; read-out: Cytotoxicity activity IC50, PC3 (prostate)
Protocol: (§1) Compounds 1-15 were screened for their in vitro cytotoxic activity utilizing a 3-(4,5-dimethyl-thiazol-2-yl)-2,5-diphenyltetrazolium bromide (MTT) assay against selected cancer human cell lines consisting of PC3 (prostate), HCT116 (colon), A375 (melanoma), H1299 (lung), MIAPaCa-2 (pancreas), HL60 (leukemia), MCF7 (breast), MDA-MB-231 (breast) (T. Mosmann, J. Immunol. Meth., 1983, 65, 55-63). The cells were cultured at 37° C. in RMPI1640 medium supplemented with 10% fetal bovine serum, 50 IU/mL penicillin, and 50 μg/mL streptomycin in a 5% CO2 incubator. All cells were sub-cultured 3 times/week by trypsinisation. Viable cells were seeded and allowed to adhere for 12 hours before a test drug was added in 96-well plates at an initial density of 1.0×10^5 cells/mL. Tumor cell lines were separately exposed to various concentrations of the tested compounds followed by incubation at a temperature of 37° C. during 96 hours inside a medium of fresh RMPI 1640. Cells were subsequently incubated at 37° C. using MTT at 0.5 mg/mL during 4 hours. After removal of supernatant, formazan crystals were dissolved in isopropanol and the optical density was measured at 570 nm. CX-4945 was used as a positive control.

HCT116 (colon) = assay: In vitro cytotoxic activity assay (MTT), HCT116; type: cell-based; settings: Homo sapiens, HCT-116; cells exposed for 96 hours; 50 % inhibition of cell proliferation; read-out: Cytotoxicity activity IC50, HCT116 (colon)
Protocol: as §1

A375 (melanoma) = assay: In vitro cytotoxic activity assay (MTT), A375; type: cell-based; settings: Homo sapiens, A-375; cells exposed for 96 hours; 50 % inhibition of cell proliferation; read-out: Cytotoxicity activity IC50, A375 (melanoma)
Protocol: as §1

H1299 (lung) = assay: In vitro cytotoxic activity assay (MTT), H1299; type: cell-based; settings: Homo sapiens, NCI-H1299; cells exposed for 96 hours; 50 % inhibition of cell proliferation; read-out: Cytotoxicity activity IC50, H1299 (lung)
Protocol: as §1

MIAPaCa-2 (pancreas) = assay: In vitro cytotoxic activity assay (MTT), MIAPaCa-2; type: cell-based; settings: Homo sapiens, MIA PaCa-2; cells exposed for 96 hours; 50 % inhibition of cell proliferation; read-out: Cytotoxicity activity IC50, MIAPaCa-2 (pancreas)
Protocol: as §1

HL60 (leukemia) = assay: In vitro cytotoxic activity assay (MTT), HL60; type: cell-based; settings: Homo sapiens, HL-60; cells exposed for 96 hours; 50 % inhibition of cell proliferation; read-out: Cytotoxicity activity IC50, HL60 (leukemia)
Protocol: as §1

MCF7 (breast) = assay: In vitro cytotoxic activity assay (MTT), MCF7; type: cell-based; settings: Homo sapiens, cells exposed for 96 hours, 50 % inhibition of cell proliferation, read-out: Cytotoxicity activity IC50, MCF7 (breast)
Protocol: as §1

MDA-MB-231 (breast) = assay: In vitro cytotoxic activity assay (MTT), MDA-MB-231; type: cell-based; settings: Homo sapiens, cells exposed for 96 hours, 50 % inhibition of cell proliferation, read-out: Cytotoxicity activity IC50, MDA-MB-231 (breast)
Protocol: as §1

[1] = target: T1, recombinant human CK2 (RRββ-holoenzyme) (Homo sapiens, UniProt P68400); assay: CK2 Kinase Assay; type: biochemical; settings: final ATP concentration 15 μM; 10 min at 30° C.; read-out: protein kinase CK2 inhibition IC50
T1 construct: purchased Millipore
Protocol: CK2 Kinase Assay was conducted using the protocol as described in Pierre F. et al; J. Med. Chem. 2011, 54, 635-654. The tested compounds in aqueous solution were added at a volume of 10 μL to a reaction mixture comprising 10 μL of assay dilution buffer (ADB; 20 mM MOPS, pH 7.2, 25 mM β-glycerol phosphate, 5 mM EGTA, 1 mM sodium orthovanadate, and 1 mM dithiothreitol), 10 μL of substrate peptide (RRRDDDSDDD, dissolved in ADB at a concentration of 1 mM), 10 μL of recombinant human CK2 (RRββ-holoenzyme, 25 ng dissolved in ADB; Millipore). Reactions were initiated by the addition of 10 μL of ATP solution (90% 75 mMMgCl2, 75 μM ATP (final ATP concentration: 15 μM) dissolved in ADB; 10% [γ-33P] ATP (stock 1 mCi/100 μL; 3000 Ci/mmol (Perkin-Elmer) and maintained for 10 min at 30° C. The reactions were quenched with 100 μL of 0.75% phosphoric acid and then transferred to and filtered through a phosphor cellulose filter plate (Millipore). After washing each well five times with 0.75% phosphoric acid, the plate was dried under vacuum for 5 min and, following the addition of 15 μL of scintillation fluid to each well, the residual radioactivity was measured using a Wallac […] counter. The IC50 values were derived from eight concentrations of test inhibitors.

T1 sequence (P68400 whole entry): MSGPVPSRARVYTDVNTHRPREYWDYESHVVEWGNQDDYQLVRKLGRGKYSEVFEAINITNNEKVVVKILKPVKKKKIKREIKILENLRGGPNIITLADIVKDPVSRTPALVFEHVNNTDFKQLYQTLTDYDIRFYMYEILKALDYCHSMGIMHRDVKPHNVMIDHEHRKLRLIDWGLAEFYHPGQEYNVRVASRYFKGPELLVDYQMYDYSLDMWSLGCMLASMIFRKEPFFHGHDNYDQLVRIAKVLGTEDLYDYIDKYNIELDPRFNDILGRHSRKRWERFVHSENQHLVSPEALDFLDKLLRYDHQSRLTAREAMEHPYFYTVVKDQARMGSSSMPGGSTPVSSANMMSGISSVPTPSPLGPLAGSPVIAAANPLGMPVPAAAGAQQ
T1 sequence (P67870 whole entry partner): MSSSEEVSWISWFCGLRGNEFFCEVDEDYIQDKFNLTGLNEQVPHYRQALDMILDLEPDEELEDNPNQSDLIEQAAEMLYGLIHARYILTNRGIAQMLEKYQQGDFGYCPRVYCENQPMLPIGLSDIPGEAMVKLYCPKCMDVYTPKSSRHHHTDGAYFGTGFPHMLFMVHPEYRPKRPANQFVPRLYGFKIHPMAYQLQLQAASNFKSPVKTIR

O=C(O)c1cc2c(nc(Nc3cccc(Cl)c3)c3ccncc32)[nH]1 [Compound 1, 5-((3-chlorophenyl)amino)-7H-pyrrolo[2,3-c][2,6]naphthyridine-8-carboxylic Acid]
IC50 (PC3 (prostate)): 2100 nM | IC50 (HCT116 (colon)): 1000 nM | IC50 (A375 (melanoma)): 2900 nM | IC50 (H1299 (lung)): 1300 nM | IC50 (MIAPaCa-2 (pancreas)): 900 nM | IC50 (HL60 (leukemia)): 2200 nM | IC50 (MCF7 (breast)): 3500 nM | IC50 (MDA-MB-231 (breast)): 3800 nM | IC50 [1]: 8 nM
